Data: PubChem BioAssay AID2060508 (Molecular Pharmacology Branch, DTP, NCI, 2025)

Test system: 454973-116-R2-J3-PDC spheroids, viability, % test/control
Test: Anticancer human tumor 454973-116-R2-J3-PDC patient-derived pancreatic carcinoma cell line growth inhibition [GQUAD]
Details: spheroids with HUVEC and MSC; for IC50: curve of first compound; for viability, T/C: stronger effect = lower value; active means viability on the fitted dose curve at most 10% of control; inactive means the rest
In short: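 Multi-cell-type spheroids of tumor cells with HUVEC and mesenchymal stem cells, treated with drug combinations. Concentrations descend in half-log steps from near clinical Cmax, or from 10 microM where Cmax is unknown; viability read-out.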

[1] = second compound 0.0316 µM, first compound 0.0316 µM
[2] = second compound 0.0316 µM, first compound 0.1 µM
[3] = second compound 0.0316 µM, first compound 0.316 µM
[4] = second compound 0.0316 µM, first compound 1 µM
[5] = second compound 0.0316 µM, first compound 3.16 µM
[6] = second compound 0.0316 µM, first compound 10 µM
[7] = second compound 0.1 µM, first compound 0.0316 µM
[8] = second compound 0.1 µM, first compound 0.1 µM
[9] = second compound 0.1 µM, first compound 0.316 µM
[10] = second compound 0.1 µM, first compound 1 µM
[11] = second compound 0.1 µM, first compound 3.16 µM
[12] = second compound 0.1 µM, first compound 10 µM
[13] = second compound 0.316 µM, first compound 0.0316 µM
[14] = second compound 0.316 µM, first compound 0.1 µM
[15] = second compound 0.316 µM, first compound 0.316 µM
[16] = second compound 0.316 µM, first compound 1 µM
[17] = second compound 0.316 µM, first compound 3.16 µM
[18] = second compound 0.316 µM, first compound 10 µM
[19] = second compound 1 µM, first compound 0.0316 µM
[20] = second compound 1 µM, first compound 0.1 µM
[21] = second compound 1 µM, first compound 0.316 µM
[22] = second compound 1 µM, first compound 1 µM
[23] = second compound 1 µM, first compound 3.16 µM
[24] = second compound 1 µM, first compound 10 µM
[25] = second compound 3.16 µM, first compound 0.0316 µM
[26] = second compound 3.16 µM, first compound 0.1 µM
[27] = second compound 3.16 µM, first compound 0.316 µM
[28] = second compound 3.16 µM, first compound 1 µM
[29] = second compound 3.16 µM, first compound 3.16 µM
[30] = second compound 3.16 µM, first compound 10 µM
[31] = second compound 10 µM, first compound 0.0316 µM
[32] = second compound 10 µM, first compound 0.1 µM
[33] = second compound 10 µM, first compound 0.316 µM
[34] = second compound 10 µM, first compound 1 µM
[35] = second compound 10 µM, first compound 3.16 µM
[36] = second compound 10 µM, first compound 10 µM
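Further: spheroids exposed to compounds for seven days.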
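Wherever viability, T/C is given: 100% = DMSO vehicle control viability.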

C=CCn1c(=O)c2cnc(Nc3ccc(N4CCN(C)CC4)cc3)nc2n1-c1cccc(C(C)(C)O)n1 + Cc1cnc(CNC(=O)c2c(=O)c3ccc(N4CCCN(C)CC4)nc3n3c2sc2ccccc23)cn1
263 nM: IC50 (second compound 1 µM)
inactive: viability, T/C [1] 98% | viability, T/C [2] 78.8% | viability, T/C [3] 27% | viability, T/C [4] 11.7% | viability, T/C [7] 76.5% | viability, T/C [8] 53.6% | viability, T/C [9] 29.8% | viability, T/C [10] 12% | viability, T/C [13] 57.6% | viability, T/C [14] 49.7% | viability, T/C [15] 37.2% | viability, T/C [16] 18.1% | viability, T/C [17] 9.06% | viability, T/C [19] 60.9% | viability, T/C [20] 59.2% | viability, T/C [21] 48.2% | viability, T/C [22] 22.4% | viability, T/C [23] 13.7% | viability, T/C [24] 13.6% | viability, T/C [25] 58.3% | viability, T/C [26] 63.1% | viability, T/C [27] 40.8% | viability, T/C [28] 23.9% | viability, T/C [29] 18.2% | viability, T/C [30] 21.9%
active: viability, T/C [5] 6.73% | viability, T/C [6] 10.2% | viability, T/C [11] 8.47% | viability, T/C [12] 8.54% | viability, T/C [18] 9.69% | viability, T/C [31] 0.34% | viability, T/C [32] 20.9% | viability, T/C [33] 23.4% | viability, T/C [34] 0.26% | viability, T/C [35] 0.3% | viability, T/C [36] 0.38%
110 nM: IC50 (second compound 0.316 µM)
121 nM: IC50 (second compound 0.1 µM)
190 nM: IC50 (second compound 0.0316 µM)
186 nM: IC50 (second compound 3.16 µM)
< 31.6 nM: IC50 (second compound 10 µM)

Cc1cccc(N(C)C(=O)C2C(O)CCN2c2nc(C)cc(C(F)(F)F)c2C#N)c1 (stereo unspecified) + Cc1cnc(CNC(=O)c2c(=O)c3ccc(N4CCCN(C)CC4)nc3n3c2sc2ccccc23)cn1
inactive: viability, T/C [1] 103% | viability, T/C [2] 96.8% | viability, T/C [3] 107% | viability, T/C [4] 87.5% | viability, T/C [5] 108% | viability, T/C [6] 93.4% | viability, T/C [7] 88.2% | viability, T/C [8] 74.3% | viability, T/C [9] 71.9% | viability, T/C [10] 68.7% | viability, T/C [11] 70.2% | viability, T/C [12] 69.9% | viability, T/C [13] 74.5% | viability, T/C [14] 71.5% | viability, T/C [15] 71.3% | viability, T/C [16] 67.6% | viability, T/C [17] 70.8% | viability, T/C [18] 66.1% | viability, T/C [19] 71.9% | viability, T/C [20] 65.5% | viability, T/C [21] 61.2% | viability, T/C [22] 65.2% | viability, T/C [23] 65% | viability, T/C [24] 70% | viability, T/C [25] 64.2% | viability, T/C [26] 59.4% | viability, T/C [27] 62.1% | viability, T/C [28] 65.3% | viability, T/C [29] 58.2% | viability, T/C [30] 68.4% | viability, T/C [31] 0.75% | viability, T/C [32] 16.9% | viability, T/C [33] 51.1% | viability, T/C [34] 34.8% | viability, T/C [35] 0.59% | viability, T/C [36] 0.31%
> 10000 nM: IC50 (second compound 0.0316 µM) | IC50 (second compound 0.1 µM) | IC50 (second compound 0.316 µM) | IC50 (second compound 1 µM) | IC50 (second compound 3.16 µM)
< 31.6 nM: IC50 (second compound 10 µM)

Cc1[nH]c2ccccc2c1CCNCc1ccc(/C=C/C(=O)NO)cc1 + CN(C)c1ccc(Nc2c3ccc(NC(=O)CCN4CCCC4)cc3nc3cc(NC(=O)CCN4CCCC4)ccc23)cc1
72.5 nM: IC50 (second compound 0.0316 µM)
35.4 nM: IC50 (second compound 10 µM)
66.8 nM: IC50 (second compound 0.1 µM)
48.8 nM: IC50 (second compound 1 µM)
active: viability, T/C [3] 6.62% | viability, T/C [9] 6.22% | viability, T/C [15] 6.88% | viability, T/C [21] 8.83% | viability, T/C [27] 7.17% | viability, T/C [33] 4.66%
56.3 nM: IC50 (second compound 0.316 µM)
inactive: viability, T/C (second compound 0.0316 µM, first compound 0.000999 µM) 104% | viability, T/C (second compound 0.0316 µM, first compound 0.00316 µM) 102% | viability, T/C (second compound 0.0316 µM, first compound 0.00999 µM) 106% | viability, T/C [1] 83.2% | viability, T/C (second compound 0.0316 µM, first compound 0.0999 µM) 37.1% | viability, T/C (second compound 0.1 µM, first compound 0.000999 µM) 107% | viability, T/C (second compound 0.1 µM, first compound 0.00316 µM) 96.7% | viability, T/C (second compound 0.1 µM, first compound 0.00999 µM) 92.8% | viability, T/C [7] 89.5% | viability, T/C (second compound 0.1 µM, first compound 0.0999 µM) 28.9% | viability, T/C (second compound 0.316 µM, first compound 0.000999 µM) 93.8% | viability, T/C (second compound 0.316 µM, first compound 0.00316 µM) 93.3% | viability, T/C (second compound 0.316 µM, first compound 0.00999 µM) 99.2% | viability, T/C [13] 68.7% | viability, T/C (second compound 0.316 µM, first compound 0.0999 µM) 30.2% | viability, T/C (second compound 1 µM, first compound 0.000999 µM) 96.8% | viability, T/C (second compound 1 µM, first compound 0.00316 µM) 92.5% | viability, T/C (second compound 1 µM, first compound 0.00999 µM) 92.3% | viability, T/C [19] 65.1% | viability, T/C (second compound 1 µM, first compound 0.0999 µM) 24.5% | viability, T/C (second compound 3.16 µM, first compound 0.000999 µM) 90.1% | viability, T/C (second compound 3.16 µM, first compound 0.00316 µM) 86.7% | viability, T/C (second compound 3.16 µM, first compound 0.00999 µM) 82.1% | viability, T/C [25] 70.3% | viability, T/C (second compound 3.16 µM, first compound 0.0999 µM) 26.2% | viability, T/C (second compound 10 µM, first compound 0.000999 µM) 68% | viability, T/C (second compound 10 µM, first compound 0.00316 µM) 70.9% | viability, T/C (second compound 10 µM, first compound 0.00999 µM) 65.6% | viability, T/C [31] 51.8% | viability, T/C (second compound 10 µM, first compound 0.0999 µM) 27.1%
53.2 nM: IC50 (second compound 3.16 µM)
